Measured values from patent publication US20160113911A1, “METHODS AND COMPOSITIONS FOR THE TREATMENT OF CANCER” (THE GENERAL HOSPITAL CORPORATION, priority 2013, published 2016).
“Also recorded” adds a separate entry of the source.

Legend:
KDM4A = KDM4A protein levels by western blot; type: cell-based, human; conditions: RPE cells; 1% O2
Method: Western blot analyses were performed according to (Black et al., 2010).
Western blots were performed as in (Black et al., 2010). Briefly, adherent cells were either scraped directly into PBS, or washed with PBS, trypsinized and collected by centrifuging at 2,000 RPM for 5 minutes. For preparation of whole-cell lysates, cell pellets were washed once in ice-cold PBS and resuspended in RIPA lysis buffer [50 mM Tris pH 7.4, 150 mM NaCl, 0.25% Sodium Deoxycholate, 1% NP40, 1 mM EDTA, 10% Glycerol] supplemented with complete protease inhibitor and PhosSTOP™ phosphatase inhibitor cocktails (Roche). Cells were lysed on ice for 15 minutes and immediately frozen at −80° C. for 10 min. Lysates were subsequently sonicated at 70% amplitude for 15 minutes in a QSonica Q800R™ and cleared of cell debris by centrifuging at 12,000 RPM for 15 minutes, before being analyzed by western blotting. For HIF1α expression, adherent cells were washed twice with ice-cold PBS and scraped directly in warmed 1× Laemmli buffer. Samples were sonicated at 70% amplitude for 15 minutes and boiled immediately prior to western blotting.

HEK 293T cells [1] = assay: MTT proliferation and viability assay; type: cell-based, human
Method: For tissue culture and generation of stable cell lines see (Black et al., 2010). Rapamycin (LC Laboratories) and AZD8055 (Selleckchem) were used at indicated concentrations. […] JIB-04 (Xcessbio) was used at a final concentration of 250 nM. For the translation assays, DMEM depleted of Methionine and Cysteine (Life Technologies 21013-024) was used.
MTT assays were performed following supplier's instructions from the Cell Proliferation Kit I™ (MTT) from Roche. Briefly, 1×10^4 cells were seeded per well of a 96 well plate and grown for 24h before treatment. Forty-eight hours later, cells were assayed.

[2] = system: 1q12h copy gain in RPE cells; assay: FISH for site-specific copy gain; type: cell-based, human; conditions: RPE cells; 1% O2 24 hours; JIB-04 62.5 nM or 2 mM succinate pre-treatment, or overexpression
Method: FISH was performed as described in (Manning et al., 2010). Probes for 1q12h, 1q telomere, and chromosome 2, 6, 8, and X alpha satellite were purchased from Rainbow Scientific. Probes for 1q12 (RP11-80L2), Xq13.2 (RP11-451A22), Xq13.1 (RP11-177A4) were purchased as BAC clones from Children's Hospital Oakland Research Institute (CHORI BacPac) FISH verified clone repository. Oligonucleotide probes for 1q21.2 (BCL9) and 1q23.3 were purchased from Agilent (SureFISH). BACS were prepared utilizing PureLink HiPure Plasmid Filter Maxiprep kit (Life Technologies) using the recommended modified wash buffer. Probes were nick translated (Abbot Molecular Kit) in the presence of fluorescently labeled dTTP (Enzo Life Science). Images of multiple planes of fields of nuclei were acquired on an Olympus IX81 Spinning Disk Microscope and analyzed using Slidebook 5.0 software. We used a conservative scoring metric for copy gain. Any foci that were touching were scored as a single foci to prevent increased numbers due to normally replicated foci. For RPE cells, copy gain was scored as any cell with 3 or more distinct foci. For 293T cells, copy gain was scored for any cell with 5 or more distinct foci. For RPE cells each experiment includes at least one replicate from the two different polyclonal stable cell preparations. At least 100 cells for each replicate were scored for all experiments except analysis of single cell clones.
Cells were plated onto culture dishes and allowed to adhere for 20-24 hrs in normoxia (5% CO2, 21% O2, and 74% N2). For hypoxic treatment, cells were maintained in a HERA Cell 150™ incubator (Thermo Scientific) flushed with 5% CO2, 1% O2 or 4% O2, and balanced with N2 for the duration of the experiment. Incubator calibrations were carried out by Bianchi Associates Calibrations/Verifications.
To release, cells were washed twice with culture medium pre-conditioned in normoxia or hypoxia, and supplied with fresh pre-conditioned media. For JIB-04 treatment, normoxic cells were pre-treated with 62.5 nM JIB-04 (Xcessbio) for 24 hrs, then treated again with JIB-04 and either transferred to 1% O2 or maintained in normoxia for an additional 24 hrs. Succinate was administered at a final concentration of 2 mM and cells were either maintained in normoxia for 72 hrs or maintained in normoxia for 48 hrs prior to being transferred to 1% O2 for 24 hrs.
FISH was performed as described in (Black et al., 2013; Manning et al., 2010). Probes for 1q12h, 1q telomere, chromosome 8 centromere (alpha satellite), and X centromere (alpha satellite) were purchased from Rainbow Scientific. Probes for Xq13.1 (RP11-177A4), Zebrafish BCL9 (CH73-15J19) and Zebrafish IGBP1 (CH73-223D24) were purchased as BAC clones from Children's Hospital Oakland Research Institute (CHORI BacPac) clone repository. Probes for 1q21.2 (BCL9) and 1q23.3 were purchased from Agilent (SureFISH).
FISH was performed as described in (Black et al., 2013; Manning et al., 2010). Probes for 1q12h, 1q telomere, chromosome 8 centromere (alpha satellite), and X centromere (alpha satellite) were purchased from Rainbow Scientific. Probes for Xq13.1 (RP11-177A4), Zebrafish BCL9 (CH73-15J19) and Zebrafish IGBP1 (CH73-223D24) were purchased as BAC clones from Children's Hospital Oakland Research Institute (CHORI BacPac) clone repository. Probes for 1q21.2 (BCL9) and 1q23.3 were purchased from Agilent (SureFISH). BACS were prepared utilizing PureLink HiPure™ Plasmid Filter Maxiprep kit (Life Technologies) using the recommended modified wash buffer. Probes were nick translated (Abbot Molecular Kit) in the presence of fluorescently labeled dTTP (Enzo Life Science). Images of multiple planes of fields of nuclei were acquired on an Olympus IX81 T Spinning Disk Microscope and analyzed using Slidebook™ 5.0 software. A conservative scoring metric was used for copy gain. Any foci that were touching were scored as a single copy to prevent increased numbers due to normally replicated foci.

RPE cells [3] = assay: Flow cytometry cell cycle analysis; type: cell-based, human; conditions: normoxia and hypoxia
Method: Asynchronously growing, or G1/S arrested cells were prepared and fixed as in (Black et al., 2010). Cells were stained with 10 μM EdU for 1 hour prior to collection. Cell cycle was analyzed by PI staining or EdU incorporation using Click-IT EdU™ Flow Cytometry Assay Kit (Life Technologies). Flow cytometry of CD4+ T cells and cell cycle distribution were analyzed using a BD FACS ARIA II™.

HEK 293T cells [4] = assay: Monitored cell proliferation assay (xCELLigence growth curves, doubling time); type: cell-based, human
Method: Seventy two hours post transfection 1×10^4 HEK 293T cells were seeded per well of a 96 well plate, and then treated after 24h. Cell proliferation was monitored with an xCELLigence system (Roche) (Vistejnova et al., 2009).

overall translation = assay: Translation assay (AHA incorporation, Click-IT); type: cell-based, human; conditions: HEK 293T; 24h; 250 nM JIB-04 and 0.1 ng/ml Rapamycin
Method: Translation assays were performed following supplier's instructions from Click-IT™ Metabolic Labeling Reagents for Proteins (Life Technologies). Cells were incubated in presence of DMEM without Cysteine and Methionine for 1 h, then grown in presence of 50 μM AHA (L-azidohomoalanine, Life Technologies C10102) for 2h, harvested and washed extensively with PBS. Cells were lysed in 1% SDS in 50 mM Tris pH8 with 10% Glycerol and sonicated using a bath sonicator (QSonica™ Q800R) for 30 min. The Click-IT reactions were performed following the supplier's instructions from Click-IT™ Protein Reaction Buffer Kit (Life Technologies). Briefly, 50 μg to 100 μg of lysates were used per reaction with 40 μM Alkyne-Biotin (Life Technologies B10185), and 10 μg were assayed by western blot using a Streptavidin antibody conjugated to HRP.

translation initiation = assay: Polysome profiles; type: cell-based, human; conditions: 293T cells
p53 = p53 stabilization and p53 target gene induction after DNA damage; type: cell-based, human; conditions: RPE GFP-CTRL and GFP-KDM4A cells; 1 uM for 16 hrs
Method: Western blots were performed as in (Black et al., 2010). Antibodies used were: KDM4A (Neuro mAB, 75-189), β-actin (Millipore), GFP (Neuro mAB, 73-131), RFP (Abcam, ab62341), p53 (Santa Cruz, sc-126), MCM2 (Cell Signaling, #3619S), MCM3 (Cell Signaling, #4012S), MCM7 (Cell Signaling, #3735S), Halo (Promega), Actinin (Santa Cruz, sc-17829), HA 12CA5 (Roche), FLAG M2 (Sigma), DNA Pol α (Abcam, ab31777).

RPE cells [5] = assay: Apoptosis by annexin V staining; type: cell-based, human; conditions: RPE CTRL and KDM4A overexpressing cells
H3K36me3 = assay: H3K36 demethylase activity of KDM4A variants in transfected cells (immunofluorescence); type: cell-based; conditions: U2OS cells transfected with GFP-KDM4A

Molecule: Clc1ccc(N/N=C(\c2ccccc2)c2ccccn2)nc1 [JIB-04]
- KDM4A protein levels in hypoxia (KDM4A): did not substantially alter KDM4A protein levels in hypoxia
- sensitivity to Rapamycin and AZD8055 upon JIB-04 co-treatment (HEK 293T cells [1]; JIB-04 vs vehicle, 48h): enhanced the effect of both Rapamycin and AZD8055; also recorded: more sensitive to Rapamycin and AZD8055 than cells treated with vehicle
- hypoxia-dependent copy gain of 1q12h [2]: did significantly reduce hypoxia-dependent copy gain of 1q12h
- cell cycle profile (RPE cells [3]): did not result in significant differences in cell cycle between normoxic and hypoxic cells
- cell sensitivity to Rapamycin (doubling time between 5 h and 35 h) (HEK 293T cells [4]; HEK293T, 250 nM JIB-04 and 1 ng/ml of Rapamycin): increases cell sensitivity to Rapamycin
- cell sensitivity to AZD8055 (doubling time between 5 h and 35 h) (HEK 293T cells [4]; HEK293T, 250 nM JIB-04 and 50 nM of AZD8055): increases cell sensitivity to AZD8055
- overall translation with JIB-04 and Rapamycin (overall translation): enhanced the alteration of translation observed after Rapamycin treatment
- polysome profile, JIB-04 with Rapamycin (translation initiation; JIB-04 250 nM and Rapamycin 0.1 ng/ml): can sensitize cells to Rapamycin by increasing their translation initiation defect
- polysome profile, JIB-04 alone (translation initiation; JIB-04 250 and 500 nM): leads to a translation initiation defect

Molecule: COc1ccc(-c2ccc3c(N4CCOC[C@@H]4C)nc(N4CCOC[C@@H]4C)nc3n2)cc1CO [AZD8055]
- drug sensitivity of KDM4A shRNA cells vs control vector (MTT) (HEK 293T cells [1]; shRNA 4A.10 or 4A.06, 48h): more sensitive

Molecule: COc1cccc2c1C(=O)c1c(O)c3c(c(O)c1C2=O)C[C@@](O)(C(=O)CO)C[C@@H]3O[C@H]1C[C@H](N)[C@H](O)[C@H](C)O1 [doxorubicin]
- p53 stabilization and p53 target gene activation (p53): resulted in stabilization of p53 and activation of p53 target genes
- apoptosis (percent Annexin V positive cells) (RPE cells [5]): could induce apoptosis in both CTRL and KDM4A cells

B1: KDM4A SNP-A482: KDM4A germline variant E482A (protein)
chain: MASESETLNPSARIMTFYPTMEEFRNFSRYIAYIESQGAHRAGLAKVVPPKEWKPRASYDDIDDLVIPAPIQQLVTGQSGLFTQYNIQKKAMTVREFRKIANSDKYCTPRYSEFEELERKYWKNLTFNPPIYGADVNGTLYEKHVDEWNIGRLRTILDLVEKESGITIEGVNTPYLYFGMWKTSFAWHTEDMDLYSINYLHFGEPKSWYSVPPEHGKRLERLAKGFFPGSAQSCEAFLRHKMTLISPLMLKKYGIPFDKVTQEAGEFMITFPYGYHAGFNHGFNCAESTNFATRRWIEYGKQAVLCSCRKDMVKISMDVFVRKFQPERYKLWKAGKDNTVIDHTLPTPEAAEFLKESELPPRAGNEEECPEEDMEGVEDGEEGDLKTSLAKHRIGTKRHRVCLEIPQEVSQSELFPKEDLSSEQYEMTECPAALAPVRPTHSSVRQVEDGLTFPDYSDSTEVKFEELKNVKLEEEDEEEEQAAAALDLSVNPASVGGRLVFSGSKKKSSSSLGSGSSRDSISSDSETSEPLSCRAQGQTGVLTVHSYAKGDGRVTVGEPCTRKKGSAARSFSERELAEVADEYMFSLEENKKSKGRRQPLSKLPRHHPLVLQECVSDDETSEQLTPEEEAEETEAWAKPLSQLWQNRPPNFEAEKEFNETMAQQAPHCAVCMIFQTYHQVEFGGFNQNCGNASDLAPQKQRTKPLIPEMCFTSTGCSTDINLSTPYLEEDGTSILVSCKKCSVRVHASCYGVPPAKASEDWMCSRCSANALEEDCCLCSLRGGALQRANDDRWVHVSCAVAILEARFVNIAERSPVDVSKIPLPRFKLKCIFCKKRRKRTAGCCVQCSHGRCPTAFHVSCAQAAGVMMQPDDWPFVVFITCFRHKIPNLERAKGALQSITAGQKVISKHKNGRFYQCEVVRLTTETFYEVNFDDGSFSDNLYPEDIVSQDCLQFGPPAEGEVVQVRWTDGQVYGAKFVASHPIQMYQVEFEDGSQLVVKRDDVYTLDEELPKRVKSRLSVASDMRFNEIFTEKEVKQEKKRQRVINSRYREDYIEPALYRAIME
modifications: left off: large carriers; small tags and cut ends
notes: KDM4A germline variant E482A
- rescue of increased sensitivity to AZD8055 due to KDM4A depletion (doubling time 5h-35h) (HEK 293T cells [4]; shRNA KDM4A plus non targetable GFP-KDM4A constructs): does not
- rescue of increased sensitivity to Rapamycin of KDM4A depleted cells (doubling time 5h-35h) (HEK 293T cells [4]; shRNA KDM4A plus shRNA-resistant GFP-KDM4A constructs): does not
- H3K36me3 and H3K9me3 catalytic activities (H3K36me3): did not appear to be altered
